Results on 13 compounds are retold here after patent US20170029454A1, “NKT CELL LIGANDS AND METHODS OF USE” (THE SCRIPPS RESEARCH INSTITUTE, priority 2013, published 2017).

Read-outs that look alike come from different tables or passages of the source.

In one data set the target is L363 antibody. The data set can be described thus: Surface plasmon resonance: binding of immobilized L363 antibody to CD1d-lipid complexes. The conditions noted are these: for Kdiss (L363 binding to CD1d-lipid complex) / Kd / Affinity Kd (Kdiss/Kass): lipid loaded on mCD1d, single cycle SPR, Biacore T200; for Kd: read-out: Affinity Kd (Kdiss/Kass); for binding of L363 to lipid loaded into CD1d: SPR. The method, then:
Single cycle analysis was performed on CM5 chips using 250-1000 RUs of immobilized antibody and increasing concentrations of CD1-lipid complexes.
(§1) A Biacore T200 instrument (GE Healthcare, Pittsburgh, Pa.) was used for SPR measurements. Measurements were performed using single cycle protocols to avoid repeated use of regeneration buffer on the immobilized ligands. Immobilization of target antibodies was carried out using classical amine coupling chemistry. 250 to 1,000 RU of antibody was immobilized in each flow cell. All mCD1-lipid complexes were purified after loading to ensure maximal homogeneity and avoid the presence of small amounts of aggregated material. Concentrations ranging from […] were used for each CD1-lipid complex. Flow cell one was used as a negative control and used for subtraction from experimental flow cells. Global analysis of subtracted sensorgrams was carried out using the T200 analysis software.
as §1, with “(available from GE” for “(GE”, “cells (L363 antibody—control antibody).” for “cells.”
On the technique in general: Surface plasmon resonance follows binding to a sensor surface in real time, without labels.

The next data set deals with DN32.D3 NKT cells. Put plainly: T cell activation assay (IL-2 production) with Vα14 NKT hybridoma DN32.D3. It counts as cell-based. The conditions noted are these: for effect of ceramidase inhibition on stimulatory activity towards NKT cells: untreated or LPS-treated DC3.2 cells, 24 h; for effect on stimulation of NKT cells, FIG. 10 legend: DC3.2 cells treated with recombinant TNFα (legend FIG. 10); for effect on stimulation of NKT cells in the context of TNFα stimulation: DC3.2 cells, TNFα stimulation (FIG. 11); for effect on stimulation of NKT cells by DCs: non-differentiated and LPS-treated DC3.2 cells, 1-deoxygalactonojirimycin 0.5 μM, 1-deoxygluconojirimycin 2.0 μM. Here is the method: T cell hybridoma cells were cultured in RPMI supplemented with 10% FCS, 2 mM L-glutamine, 20 mM HEPES, and non-essential amino acids. Antigen presentation assays were carried out using 5-20×10^3 DC 3.2 cells or 1×10^5 splenocytes and 4×10^4 T cells per well in 96 well tissue culture plates in triplicates. Cell culture supernatants were collected 24 h later for determination of IL-2 concentrations using an IL-2-dependent NK cell line reporter system. NKT cells have a memory phenotype and hallmarks of “pre-activation” when analyzed ex vivo. In vitro they have been described as being highly autoreactive by their propensity at being activated by syngeneic target cells expressing CD1d molecules (Bendelac et al. 2007, Annual Rev. Immuno., 25:297; Park et al., 1998, J. Immunol., 160:3128). This phenomenon can be illustrated by the activation of Vα14 NKT hybridoma cell DN32.D3 against RBL-CD1, a CD1d positive cell line, that have been stimulated by […] ligands. Stimulation of DN32.D3 cells and TBA.7 cells, a non-Vα14 NKT cell hybridoma, was tested against RBL-CD1 or RBL-CD1 SAP^-/- in which […] expression was knocked down by interfering RNAs. The hybridoma cells were cultured in RPMI supplemented with 10% FCS, 2 mM L-glutamine, 20 mM HEPES, and non-essential amino acids. Antigen presentation assays were carried out using 5-20×10^3 DC 3.2 cells or 1×10^5 splenocytes and 4×10^4 T cells per well in 96-well tissue culture plates in triplicates. Cell culture supernatants were collected 24 h later for determination of IL-2 concentrations using an IL-2-dependent NK cell line reporter system. […] The results are shown in FIGS. 14A-E. A control (open circles) was included for comparison with each inhibitor (filled circles).

For a further data set, the system named is DC3.2 cells. The data set can be described thus: Toxicity of ceramidase inhibitors over a 24 h assay (viability and αGalCer presentation to DN32.D3 cells). It counts as cell-based. Here is the method: In the absence of a suitable animal model, enzyme inhibitors were used to assess the role of ceramidases in the control of NKT ligands. […] In the T-cell activation assays, DC3.2 cells were differentiated with LPS and treated with inhibitors of α-glycosidases (GLAi and/or GAAi), 1-deoxygalactonojirimycin (0.5 μM) and 1-deoxygluconojirimycin (2.0 μM), respectively, or ceramidase inhibitors (NAAA/ASAHLi(27) (20 μM) or AC/ASAH1i, carmofur (1.0 μM) for 24 h and used to stimulate DN32.D3 NKT cells. The results are shown in FIGS. 14A-E. A control (open circles) was included for comparison with each inhibitor (filled circles).

The target of a further data set is T1, CD1d (Mus musculus, UniProt P11609).
T1 sequence (P11609 19-297 limits assumed): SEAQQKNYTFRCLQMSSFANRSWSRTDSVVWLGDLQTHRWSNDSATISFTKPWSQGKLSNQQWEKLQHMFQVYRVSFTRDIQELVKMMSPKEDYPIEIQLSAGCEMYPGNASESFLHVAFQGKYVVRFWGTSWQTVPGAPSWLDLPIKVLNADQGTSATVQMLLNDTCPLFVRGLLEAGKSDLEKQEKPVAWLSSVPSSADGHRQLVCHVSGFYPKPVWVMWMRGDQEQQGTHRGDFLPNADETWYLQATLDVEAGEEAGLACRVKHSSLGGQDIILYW
T1 sequence (P01887 21-119 partner): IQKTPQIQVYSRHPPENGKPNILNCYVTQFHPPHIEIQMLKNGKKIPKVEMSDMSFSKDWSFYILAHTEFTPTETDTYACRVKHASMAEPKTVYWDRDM
The data set can be described thus: In vitro binding of detergent to CD1d. The conditions noted are these: in vitro (data not shown).

The target of the next data set is T2, ASAHL (NAAA) (Homo sapiens, UniProt Q02083).
T2 sequence (Q02083 29-359): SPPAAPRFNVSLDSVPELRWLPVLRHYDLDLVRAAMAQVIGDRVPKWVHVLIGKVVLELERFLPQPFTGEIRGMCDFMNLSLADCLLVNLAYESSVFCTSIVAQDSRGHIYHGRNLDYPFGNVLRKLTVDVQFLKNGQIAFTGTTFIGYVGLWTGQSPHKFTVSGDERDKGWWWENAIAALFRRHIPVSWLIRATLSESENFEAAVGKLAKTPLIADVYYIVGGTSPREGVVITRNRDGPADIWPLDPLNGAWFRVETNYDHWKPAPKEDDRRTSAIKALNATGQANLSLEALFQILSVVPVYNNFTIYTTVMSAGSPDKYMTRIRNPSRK
Put plainly: Specific activity of the ASAHL inhibitor. Further details: unit not given here. It counts as biochemical.

The subject of a further data set is L317 antibody. The data set can be described thus: Surface plasmon resonance: binding of L317 antibody to CD1d-lipid complexes. The conditions noted are these: SPR. The method, then:
as §1
as §1, with “(available from GE” for “(GE”, “Flow cell one was used as a negative control and used for subtraction from experimental flow cells. Global analysis of subtracted sensorgrams was carried out using the T200 analysis software.” left out

[1] abbreviates: carmofur 1.0 μM, NAAA/ASAHLi 20 μM.

`CCCCCCCCCCCCC/C=C/C(O)[C@H](COC1OC(CO)C(O)C(O)C1O)NC(=O)CCCCCCCCCCCCCCCCCCCCCCCCC` (stereo partly drawn) [αGluCer]: at L363 antibody, the “Kdiss (L363 binding to CD1d-lipid complex)” value was found to be 0.4711 s⁻¹ and the Kd is 5020 nM.

On to `CCCCCCNC(=O)n1cc(F)c(=O)[nH]c1=O` [carmofur, 1-Hexylcarbamoyl-5-fluorouracil], for which, in the data set with DN32.D3 NKT cells (thymocytes as APC, carmofur 1.0 μM), the “increase of stimulatory activity of thymocytes towards DN32.D3” value is listed as 2.5 fold. The “effect of ceramidase inhibition on stimulatory activity towards NKT cells” value in the data set on DN32.D3 NKT cells (setting [1]) was “significant increase in stimulatory activity”. The “toxicity over a 24 h assay” value in the data set with DC3.2 cells (viability and αGalCer presentation to DN32.D3 cells after treatment) was “very limited cell toxicity”.

`CCCCCCCCCCCCCCCCCCCCCCCCCC(=O)N[C@@H](COC1OC(CO)C(O)C(O)C1O)C(O)[C@H](O)CCCCCCCCCCCCCC` (stereo partly drawn) [αGalCer]: on L363 antibody, the “Kdiss (L363 binding to CD1d-lipid complex)” value turned out to be 0.0083 s⁻¹ and the Kd was determined as 96.7 nM.

For the compound `OC[C@H]1NC[C@H](O)[C@@H](O)[C@H]1O` [1-deoxygalactonojirimycin], in the data set on DN32.D3 NKT cells, the “effect on stimulation of NKT cells, FIG. 10 legend” value was “induced or increased stimulation of NKT cells”; the “effect on stimulation of NKT cells in the context of TNFα stimulation” value is “did not increase stimulation of NKT cells”; the “effect on stimulation of NKT cells by DCs” value is recorded as “induced or increased a robust stimulation of NKT cells”.

Regarding `CCCCCCCCCCCC1(C)OCC(COCCCS(=O)(=O)[O-])O1.[Na+]` (stereo not drawn) [Sodium 3-[(2-methyl-2-undecyl-1,3-dioxolan-4-yl)methoxy]-1-propanesulfonate], at CD1d, the “binding to CD1d” value is “not bind CD1d to any measurable extent”.

On to `CCCCCCCC/C=C\CCCCCCCCCCCCCC(=O)N[C@@H](COC1OC(CO)C(O)C(O)C1O)C(O)/C=C/CCCCCCCCCCCCC` (stereo partly drawn) [βGluCer24:1], for which the “Affinity Kd (Kdiss/Kass)” value at L363 antibody was “N.M”. For the same compound, in the data set with DN32.D3 NKT cells (GBA 2 h at 37° C., WT splenocytes 10^5 cells/well), the “stimulatory activity towards DN32.D3 after digestion with recombinant GBA” value was “Stimulatory activity was not changed”.

Regarding `O=C(CCc1ccc(-c2ccccc2)cc1)N1CCCC1` [NAAA inhibitor, 1-(2-Biphenyl-4-yl)ethyl-carbonyl pyrrolidine], the “effect on stimulatory activity of thymocytes towards DN32.D3” value with DN32.D3 NKT cells (thymocytes as APC, NAAA/ASAHLi 20 μM) is listed as “no effect”. The “effect of ceramidase inhibition on stimulatory activity towards NKT cells” value in the data set with DN32.D3 NKT cells (setting [1]) is on record as “very limited but reproducible increase in stimulatory activity”. Besides, the “specific activity of the inhibitor of ASAHL” value at ASAHL (NAAA) is listed as 10-200.

For the compound αGal(α1-2)Galactosylceramide, the “binding of L363 to lipid loaded into CD1d” value in the data set on L363 antibody is given as “no ability to bind”. Also, the “binding of L317 to lipid loaded into CD1d” value with L317 antibody was “no ability to bind”.

As to `OC[C@H]1NC[C@H](O)[C@@H](O)[C@@H]1O` [1-deoxygluconojirimycin], in the data set with DN32.D3 NKT cells, the “effect on stimulation of NKT cells, FIG. 10 legend” value was “induced or increased stimulation of NKT cells”; the “effect on stimulation of NKT cells in the context of TNFα stimulation” value was “did not increase stimulation of NKT cells”; the “effect on stimulation of NKT cells by DCs” value was “did not result in significant increase in stimulatory activity”.

With `CCCCCCCC/C=C\CCCCCCCCCCCCCC(=O)N[C@@H](COC1OC(CO)C(O)C(O)C1O)C(O)/C=C/CCCCCCCCCCCCC` (stereo partly drawn) [αGalCer24:1], at L363 antibody, the “Kdiss (L363 binding to CD1d-lipid complex)” value was determined as 0.05 s⁻¹ and the Kd was 350 nM.

`CCCCCCCCCCCCCC[C@@H](O)C(O)[C@@H](N)COC1OC(CO)C(O)C(O)C1O` (stereo partly drawn): at L363 antibody, the “Affinity Kd (Kdiss/Kass)” value is on record as “N.M”.

On to `CCCCCCCCCCCCCC(=O)N[C@H](CO)[C@H](O)c1ccc([N+](=O)[O-])cc1` [NMAPPD, N-[(1R,2R)-2-hydroxy-1-(hydroxymethyl)-2-(4-nitrophenyl)ethyl]-tetradecanamide], for which the “toxicity over a 24 h assay” value in the data set with DC3.2 cells is listed as “too much toxicity”.

Consider isoglobotrihexosylceramide [iGb3], for which the “binding of L363 to lipid loaded into CD1d” value with L363 antibody was “no ability to bind”. Further, the “binding of L317 to lipid loaded into CD1d” value in the data set with L317 antibody is given as “no ability to bind”.
